Measurements as given in US20090017042A1, “PROCESS FOR THE DETERMINATION OF THE PRIMARY STRUCTURE OF THE MESSENGER RNA CODING FOR THE HUMAN RECOMBINANT ENDOOLIGOPEPTIDASE A (HEOPA) [AF217798]” (priority 2002, published 2009).
pKi: −log10 of the molar value. Values joined by “and” are separate entries in the source; they are usually repeats but may differ in a detail not shown here. Equal entries are not always repeated.

Experiments:
[1] = biological target: T1, rEOPA (recombinant endooligopeptidase A) (Homo sapiens, UniProt Q9GZM8); details: state of the art; cited from earlier work
T1 construct: poly-histidine tag or anchor protein (e.g. GST) (N, cleaved yes); made in house; host or cells: Escherichia coli (DH5alpha, BL21(DE3) or similar), vector e.g. pProEx-HTc
T1 sequence (Q9GZM8 1-345): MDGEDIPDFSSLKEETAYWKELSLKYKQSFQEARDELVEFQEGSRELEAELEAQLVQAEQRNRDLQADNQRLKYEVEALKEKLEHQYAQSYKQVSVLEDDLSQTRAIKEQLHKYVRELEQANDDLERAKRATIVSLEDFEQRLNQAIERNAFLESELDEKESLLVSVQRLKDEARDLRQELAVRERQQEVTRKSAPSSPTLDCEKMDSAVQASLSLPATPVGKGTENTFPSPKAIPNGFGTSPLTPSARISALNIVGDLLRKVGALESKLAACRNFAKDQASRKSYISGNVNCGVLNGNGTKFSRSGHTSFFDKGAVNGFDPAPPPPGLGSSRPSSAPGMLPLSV

[2] = biological target: T1, rEOPA (recombinant endooligopeptidase A); test: Inhibition of the catalytic activity of recombinant EOPA (kinetic assay, quenched fluorescence peptide substrate or HPLC); type: biochemical; details: for pKi: rEOPA
From the text: Polyclonal antibodies were generated in rats, mice and rabbits, using the purified natural EOPA or the active recombinant EOPA, expressed in bacteria, specifically in Escherichia coli, for the immunization. Male Balb-C mice, 7 to 8 weeks old, and weighing between 18 and 22 g were immunized with purified natural human EOPA, or catalytically active recombinant enzyme. For each of the four immunizations, 2.mμ.g of the purified protein or 3.mμ.g of the recombinant protein, absorbed on aluminum hydroxide [Al(OH)3] were injected intradermically, in weekly intervals. Blood samples were collected one week after the last immunization, and the serum was stored at −20° C. The antiserum titer was evaluated by ELISA, using the appropriate antigen. The anti-catalytic activity of the obtained antiserum was evaluated by HPLC or fluorimetrically, using the quenched fluorescent peptides substrates. Before use, the antiserum was pre-heated at 55° C., for 5 minutes, in order to eliminate any contaminating peptidase activity. […] Using this antibody, it was possible to discriminate the activity of the EOPA from functionally similar, but not homologous enzymes, such as the TOP and the NL, which are also present in animal tissues and cells lineages.
Kinetic assays using natural peptide substrates like bradykinin, neurotensin and opioid peptides, composed by 9 to 13 amino acid residues, were essential for the discovery and characterization of the EOPA in our laboratory (see the summary of this literature in Camargo et al., 1994). Since 1990, we have developed peptide substrates derived from natural substrates with quenched fluorescence, standardizing the characterization of this enzyme, simplifying and reducing the costs, and making the characterization of the kinetic properties of the EOPA more reliable (Juliano et al., 1990). The peptide substrates with quenched fluorescence (qf) used have the radical Abz (ortho-aminobenzoic acid) at the amino terminus of the peptide, and the EDDnp [N-(2,4-dinitrophenyl)ethylenediamine] at the carboxyl terminus of the peptide. […]

neurolysin (NL) = neurolysin (NL) (Homo sapiens, UniProt Q9BYT8); test: Inhibition of neurolysin; type: biochemical
Sequence of neurolysin (NL) (Q9BYT8 38-704): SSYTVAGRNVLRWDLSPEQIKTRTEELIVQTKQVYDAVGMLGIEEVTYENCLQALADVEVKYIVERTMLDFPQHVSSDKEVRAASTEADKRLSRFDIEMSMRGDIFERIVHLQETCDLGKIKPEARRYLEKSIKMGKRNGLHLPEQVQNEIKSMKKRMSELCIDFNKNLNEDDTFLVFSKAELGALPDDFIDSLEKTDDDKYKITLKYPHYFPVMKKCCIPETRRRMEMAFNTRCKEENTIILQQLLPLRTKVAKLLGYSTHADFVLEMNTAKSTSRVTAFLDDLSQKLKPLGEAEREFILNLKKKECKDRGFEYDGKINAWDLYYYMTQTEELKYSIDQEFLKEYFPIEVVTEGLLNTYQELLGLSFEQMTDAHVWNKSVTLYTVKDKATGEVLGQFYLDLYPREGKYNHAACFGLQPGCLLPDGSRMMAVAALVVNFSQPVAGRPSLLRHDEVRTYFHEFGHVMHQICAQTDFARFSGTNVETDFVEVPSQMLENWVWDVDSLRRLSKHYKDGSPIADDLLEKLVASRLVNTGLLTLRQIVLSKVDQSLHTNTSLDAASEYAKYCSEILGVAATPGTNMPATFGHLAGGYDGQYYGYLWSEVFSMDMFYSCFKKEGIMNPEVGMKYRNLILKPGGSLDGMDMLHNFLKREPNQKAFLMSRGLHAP

[3] = system: neuronal precursor cells from embryonic stem cells (USP-1 lineage); test: Treatment of neuronal precursor cells differentiated from embryonic stem cells with EOPA inhibitor; type: cell-based; details: neuronal precursor cells treated with the inhibitor
Experimental: The undifferentiated embryonic stem cells (USP-1 lineage) were cultured in medium containing: DMEM, supplemented with 15% of bovine fetal serum, […] of penicillin/streptomycin and 2 mM of L-glutamine, 1% of non-essential amino acids, 10^−4 M of monothioglicerol, and LIF (Leukemia Inhibitory Factor), in a final concentration of 1,000 units/ml. All the undifferentiated stem cells culture was maintained over a primary culture of previously irradiated murine fibroblasts (Neo Mef2). The differentiation was done after the formation of the embryoid bodies, where 750 cells were maintained in 20 μl of the culture medium drops over a Petri dish, during four days at 37° C., under 5% carbonic gas (during this period the cells form the cellular aggregates known as embryoid bodies). […] After completing the differentiation of the stem cells, the differentiated cells were counted and photographed using a confocal microscopy. A population of cells differentiated into neurons was obtained following the protocol described above, and the influence of the inhibition of the EOPA catalytic activity during the differentiation and maturation process of these neurons was analyzed after the treatment of these cells with the inhibitor JA2.

[4] = biological target: thimet oligopeptidase (TOP) (Homo sapiens, UniProt P52888); details: cited from earlier work
Sequence of thimet oligopeptidase (TOP) (P52888 whole entry, species assumed): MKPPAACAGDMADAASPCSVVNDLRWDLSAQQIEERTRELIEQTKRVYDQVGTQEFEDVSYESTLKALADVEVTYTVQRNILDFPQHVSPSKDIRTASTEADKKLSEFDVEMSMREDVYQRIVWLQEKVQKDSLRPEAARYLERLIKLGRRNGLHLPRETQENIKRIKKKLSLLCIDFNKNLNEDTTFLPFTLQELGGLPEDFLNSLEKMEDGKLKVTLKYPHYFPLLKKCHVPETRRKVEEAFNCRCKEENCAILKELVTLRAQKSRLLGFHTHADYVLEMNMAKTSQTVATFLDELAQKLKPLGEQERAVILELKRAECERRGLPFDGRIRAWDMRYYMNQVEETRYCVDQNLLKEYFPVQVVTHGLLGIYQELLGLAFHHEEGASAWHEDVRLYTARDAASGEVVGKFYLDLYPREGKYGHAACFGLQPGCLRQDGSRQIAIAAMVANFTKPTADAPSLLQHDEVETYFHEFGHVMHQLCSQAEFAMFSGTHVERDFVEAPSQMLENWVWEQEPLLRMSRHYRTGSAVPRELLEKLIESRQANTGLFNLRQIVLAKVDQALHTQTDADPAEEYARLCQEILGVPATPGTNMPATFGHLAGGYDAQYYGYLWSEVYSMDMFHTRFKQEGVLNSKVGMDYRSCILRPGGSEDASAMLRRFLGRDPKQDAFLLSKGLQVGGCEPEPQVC

SMILES | effect of thiol agents on EOPA activity (kinetic assays) [1] | pKi [2] | other results
O[C@H](CS)[C@H](O)CS (racemic) [dithiothreitol (DTT), dithiothreitol] | activated | – | –
O=C(O)c1cc(SSc2ccc([N+](=O)[O-])c(C(=O)O)c2)ccc1[N+](=O)[O-] [5′-dithio-bis-(2-nitrobenzoic acid)] | inhibited | – | –
O=C(O)CN(CCN(CC(=O)O)CC(=O)O)CC(=O)O [EDTA] | – | – | sensitivity of EOPA to metalloprotease-directed agents [2]: insensible
C[C@H](NC(CCc1ccccc1)C(=O)O)C(=O)NC(C)(C)C(=O)N[C@@H](Cc1ccc(O)cc1)C(=O)Nc1ccc(C(=O)O)cc1 (stereo partly shown) [JA2] | – | ~7.77 and 7.77 | pKi (neurolysin (NL)): < 6.70; differentiation of the cells [3]: abnormal differentiation of the cells; neurites formation [3]: inhibition of the neurites formation; pKi [4]: 7.64
C[C@H](NC(=O)[C@H](C)NC(CCc1ccccc1)C(=O)O)C(=O)N[C@@H](Cc1ccc(O)cc1)C(=O)Nc1ccc(C(=O)O)cc1 (stereo partly shown) [cFP] | – | ~7.77 | –
O=C(O)c1cc[c]([Hg][Cl])cc1 [p-chloromercuribenzoate (PCMB), p-chloromercuribenzoate] | inhibited | – | –
